Experimental data from patent EP4737445A1, “NOVEL SATURATED HETEROCYCLE-SUBSTITUTED HETEROARYL-CARBONOHYDRAZONOYL DICYANIDE COMPOUND AND USE THEREOF” (Korea Institute of Science and Technology, priority 2023, dated 2025).

Legend:
Assay type in all cases: in vitro ADME
CYP1A2 = target: T1, CYP1A2 (Homo sapiens, UniProt P05177); experiment: CYP isoenzyme activity inhibition in human liver microsomes, CYP1A2; conditions: 10 µM compound; human liver microsomes 0.25 mg/mL; relative to control without compound
T1 construct: human liver microsomes (0.25 mg/mL); from tissue; host or cells: human liver microsomes
T1 sequence (P05177 1-516): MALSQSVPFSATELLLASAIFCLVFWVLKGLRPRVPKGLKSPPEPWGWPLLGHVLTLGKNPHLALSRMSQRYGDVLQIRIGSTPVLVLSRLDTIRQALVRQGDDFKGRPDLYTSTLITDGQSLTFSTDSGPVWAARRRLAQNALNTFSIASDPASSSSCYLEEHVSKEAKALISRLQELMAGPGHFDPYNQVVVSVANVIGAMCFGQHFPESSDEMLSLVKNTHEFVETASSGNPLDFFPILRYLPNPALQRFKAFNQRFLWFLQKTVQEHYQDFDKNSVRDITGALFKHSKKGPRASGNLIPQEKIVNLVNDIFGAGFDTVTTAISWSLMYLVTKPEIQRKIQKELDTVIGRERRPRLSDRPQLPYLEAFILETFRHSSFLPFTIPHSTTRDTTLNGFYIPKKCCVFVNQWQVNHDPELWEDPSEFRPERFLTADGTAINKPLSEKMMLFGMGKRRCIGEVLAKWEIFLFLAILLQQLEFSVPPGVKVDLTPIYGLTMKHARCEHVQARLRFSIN
Description: (§1) The CYP isoenzyme activity inhibitory effect by the compounds prepared according to Examples 1 to 46 was confirmed. Specifically, human liver microsomes (0.25 mg/mL), 0.1 M phosphate buffer solution (pH 7.4), a substrate drug cocktail of five drug metabolizing enzymes (Phenacetin 50 µM, Diclofenac 10 µM, S-mephenytoin 100 µM, Dextromethorphan 5 µM, and Midazolam 2.5 µM), and the compounds were added at concentrations of 0 or 10 µM, respectively, and pre-incubated at 37°C for 5 minutes, and then NADPH generation system solution was added and incubated at 37°C for an additional 15 minutes. Thereafter, an acetonitrile solution containing an internal standard (Terfenadine) was added to terminate the reaction, and after centrifugation for 5 minutes (14,000 rpm, 4°C), the supernatant was injected into an LC-MS/MS system to simultaneously analyze the metabolites of the substrate drugs, thereby evaluating the drug metabolizing enzyme inhibitory activity.
(§2) The metabolites of each CYP isoenzyme marker drug generated through the reaction were analyzed using a Shimadzu Nexera XR system and TSQ vantage (Thermo). A Kinetex C18 (2.1 × 100 mm, 2.6 µm, particle size; Phenomenex, USA) was used as the HPLC column, and (A) distilled water containing 0.1% formic acid and (B) acetonitrile containing 0.1% formic acid were used as mobile phases, and a gradient program as shown in Table 6 below was applied.
(§3) The generated metabolites were quantified using MRM (Multiple Reaction Monitoring) quantitative mode, and Xcalibur (version 1.6.1) was used for data analysis. To show the CYP isoenzyme activity inhibitory effect of the novel compounds prepared according to the Examples of the disclosure, the % activity of CYP isoenzymes relative to the control group without compound addition is shown in Table 6 below. Additionally, to confirm the difference in effect according to substituents, Comparative Compounds 1 and 5, which are two compounds that share a similar parent nucleus structure with Compounds 1 to 46 of the disclosure while Cy is substituted with aromatic heteroaryl instead of saturated heterocyclyl, were selected as comparative compounds and their activities are shown together.

CYP3A4 = target: T2, CYP3A4 (Homo sapiens, UniProt P08684); experiment: CYP isoenzyme activity inhibition in human liver microsomes, CYP3A4; conditions: 10 µM compound; human liver microsomes 0.25 mg/mL; relative to control without compound
T2 construct: human liver microsomes (0.25 mg/mL); from tissue; host or cells: human liver microsomes
T2 sequence (P08684 whole entry): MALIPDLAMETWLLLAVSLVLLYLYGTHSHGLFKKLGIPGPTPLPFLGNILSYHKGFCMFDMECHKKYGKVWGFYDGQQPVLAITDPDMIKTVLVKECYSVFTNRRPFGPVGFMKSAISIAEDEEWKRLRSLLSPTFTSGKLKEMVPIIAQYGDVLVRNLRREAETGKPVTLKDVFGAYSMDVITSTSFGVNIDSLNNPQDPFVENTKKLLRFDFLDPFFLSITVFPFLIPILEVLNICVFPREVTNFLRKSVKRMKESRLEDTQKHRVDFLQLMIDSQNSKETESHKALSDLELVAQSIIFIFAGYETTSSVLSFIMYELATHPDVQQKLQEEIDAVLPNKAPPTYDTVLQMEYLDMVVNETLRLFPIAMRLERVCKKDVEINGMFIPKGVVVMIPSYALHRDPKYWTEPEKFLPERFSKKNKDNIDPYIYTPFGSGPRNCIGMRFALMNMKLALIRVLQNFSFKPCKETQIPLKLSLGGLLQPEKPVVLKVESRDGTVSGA
Description: as §1, §2, §3

[1] = Liver microsomal stability, rat; conditions: 1 µM compound; 0.5 mg/mL microsomes; NADPH; 30 minutes at 37°C
Description: Liver microsomal stability by the compounds prepared according to Examples 1 to 46 was confirmed. Specifically, four types of liver microsomes (human, dog, rat, and mouse each at 0.5 mg/mL), 0.1 M phosphate buffer solution (pH 7.4), and the compounds at 1 µM concentration were added and pre-incubated at 37°C for 5 minutes, and then NADPH generation system solution was added and incubated at 37°C for an additional 30 minutes. Thereafter, an acetonitrile solution containing an internal standard (chloropropamide) was added to terminate the reaction, and after centrifugation for 5 minutes (14,000 rpm, 4°C), the supernatant was injected into an LC-MS/MS system to analyze the substrate drug, thereby evaluating the metabolic stability of 8 compounds.
The amount of remaining substrate through the reaction was analyzed using a Shimadzu Nexera XR system and TSQ vantage (Thermo). A Kinetex XB-C18 (2.1 × 100 mm, 2.6 µm, particle size; Phenomenex, USA) was used as the HPLC column, and (A) distilled water containing 0.1% formic acid and (B) acetonitrile containing 0.1% formic acid were used as mobile phases. Analyst software (version 1.6.3) and Xcalibur (version 1.6.1) were used for data analysis. The calculated results are shown in Table 5 below: Liver microsomal stability data of novel compounds from […] (human, rat, and mouse).

Q: Which “CYP1A2 (% activity)” value (CYP1A2) does the source give for `CC1CN(c2nc3ccc(NN=C(C#N)C#N)cc3s2)CCO1` (stereo not drawn) [Compound 12, (2-(2-methylmorpholino)benzo[d]thiazol-6-yl)carbonohydrazonoyl dicyanide] here?
A: 74.9 % activity

Q: And the “CYP3A4 (% activity)” value (CYP3A4)?
A: 78.9 % activity

Q: And the “Rat microsomes (% remaining)” value [1]?
A: 70.1 % remaining

Q: With `CCn1c(N2CCOCC2)nc2cc(NN=C(C#N)C#N)ccc21` [Compound 33, (1-ethyl-2-morpholino-1H-benzo[d]imidazol-5-yl)carbonohydrazonoyl dicyanide] as the molecule, how does the “CYP1A2 (% activity)” value (CYP1A2) read?
A: 75.5 % activity

Q: And the “CYP3A4 (% activity)” value (CYP3A4)?
A: 75.4 % activity

Q: What about the “Rat microsomes (% remaining)” value [1] of the same molecule?
A: 96.8 % remaining

Q: What does the source list for `CCn1c(N2CCOCC2)nc2ccc(NN=C(C#N)C#N)cc21` [Compound 32, (1-ethyl-2-morpholino-1H-benzo[d]imidazol-6-yl)carbonohydrazonoyl dicyanide]?
A: CYP1A2 (% activity) (CYP1A2): 78.9 % activity; CYP3A4 (% activity) (CYP3A4): 73 % activity; Rat microsomes (% remaining) [1]: 81.7 % remaining

Q: With `N#CC(C#N)=NNc1ccc2nc(N3CC4CCC(C3)O4)sc2c1` [Compound 23, (2-(8-oxa-3-azabicyclo[3.2.1]octan-3-yl)benzo[d]thiazol-6-yl)carbonohydrazonoyl dicyanide] as the molecule, how does the “CYP1A2 (% activity)” value (CYP1A2) read?
A: 70.6 % activity

Q: And the “CYP3A4 (% activity)” value (CYP3A4)?
A: 71.7 % activity

Q: And the “Rat microsomes (% remaining)” value [1]?
A: 69.8 % remaining

Q: Which results are given for `N#CC(C#N)=NNc1ccc2nc(N3CCOCC3)sc2c1` [Compound 2, (2-morpholinobenzo[d]thiazol-6-yl)carbonohydrazonoyl dicyanide]?
A: CYP1A2 (% activity) (CYP1A2): 81.7 % activity; CYP3A4 (% activity) (CYP3A4): 95.7 % activity; Rat microsomes (% remaining) [1]: 55.2 % remaining

Q: For `CC1CN(c2nc3ccc(NN=C(C#N)C#N)cc3o2)CCO1` (stereo not drawn) [Compound 15, (2-(2-methylmorpholino)benzo[d]oxazol-6-yl)carbonohydrazonoyl dicyanide], which “CYP1A2 (% activity)” value (CYP1A2) is on record?
A: 80.2 % activity

Q: And the “CYP3A4 (% activity)” value (CYP3A4)?
A: 87.3 % activity

Q: And the “Rat microsomes (% remaining)” value [1]?
A: 60 % remaining

Q: Which “CYP1A2 (% activity)” value (CYP1A2) does the source give for `N#CC(C#N)=NNc1ccc2nc(N3CC4CCC(C3)O4)oc2c1` [Compound 26, (2-(8-oxa-3-azabicyclo[3.2.1]octan-3-yl)benzo[d]oxazol-6-yl)carbonohydrazonoyl dicyanide] here?
A: 79.1 % activity

Q: And the “CYP3A4 (% activity)” value (CYP3A4)?
A: 81.3 % activity

Q: And the “Rat microsomes (% remaining)” value [1]?
A: 95.1 % remaining

Q: What does the source list for `COC1CCN(c2nc3ccc(NN=C(C#N)C#N)cc3o2)CC1` [Compound 17, (2-(4-methoxypiperidin-1-yl)benzo[d]oxazol-6-yl)carbonohydrazonoyl dicyanide]?
A: CYP1A2 (% activity) (CYP1A2): 83.2 % activity; CYP3A4 (% activity) (CYP3A4): 87.1 % activity; Rat microsomes (% remaining) [1]: 59.3 % remaining

Q: Which “CYP1A2 (% activity)” value (CYP1A2) does the source give for `COC1CCN(c2nc3ccc(NN=C(C#N)C#N)cc3s2)CC1` [Compound 9, (2-(4-methoxypiperidin-1-yl)benzo[d]thiazol-6-yl)carbonohydrazonoyl dicyanide] here?
A: 68.9 % activity

Q: What about the “CYP3A4 (% activity)” value (CYP3A4) of the same molecule?
A: 66.1 % activity

Q: And the “Rat microsomes (% remaining)” value [1]?
A: 17.7 % remaining

Q: Which results are given for `N#CC(C#N)=NNc1ccc2nc(NC(=O)N3CC4CCC(C3)O4)sc2c1` [Compound 40, (2-(8-oxa-3-azabicyclo[3.2.1]octane-3-carboxamido)benzo[d]thiazol-6-yl)carbonohydrazonoyl dicyanide]?
A: CYP1A2 (% activity) (CYP1A2): 80.2 % activity; CYP3A4 (% activity) (CYP3A4): 75.5 % activity; Rat microsomes (% remaining) [1]: 87.7 % remaining

Q: What does the source list for `N#CC(C#N)=NNc1ccc2nc(N3C4CCC3COC4)sc2c1` [Compound 11, (2-(3-oxa-8-azabicyclo[3.2.1]octan-8-yl)benzo[d]thiazol-6-yl)carbonohydrazonoyl dicyanide]?
A: CYP1A2 (% activity) (CYP1A2): 83.7 % activity; CYP3A4 (% activity) (CYP3A4): 78.4 % activity; Rat microsomes (% remaining) [1]: 73.9 % remaining

Q: What does the source list for `Cn1c(N2CCOCC2)nc2ccc(NN=C(C#N)C#N)cc21` [Compound 5, (1-methyl-2-morpholino-1H-benzo[d]imidazol-6-yl)carbonohydrazonoyl dicyanide]?
A: CYP1A2 (% activity) (CYP1A2): 84.3 % activity; CYP3A4 (% activity) (CYP3A4): 86.1 % activity; Rat microsomes (% remaining) [1]: 77.8 % remaining

Q: With `CC1CN(C(=O)Nc2nc3ccc(NN=C(C#N)C#N)cc3s2)CC(C)O1` (stereo not drawn) [Compound 39, (2-(2,6-dimethylmorpholine-4-carboxamido)benzo[d]thiazol-6-yl)carbonohydrazonoyl dicyanide] as the molecule, how does the “CYP1A2 (% activity)” value (CYP1A2) read?
A: 84 % activity

Q: What about the “CYP3A4 (% activity)” value (CYP3A4) of the same molecule?
A: 56.5 % activity

Q: What about the “Rat microsomes (% remaining)” value [1] of the same molecule?
A: 82.3 % remaining
